Columns and labels:
p38 protein = test: Western blotting of phosphorylated p38 in UV-exposed fibroblasts; format: cell-based, human; conditions: WS1 fibroblasts exposed to UV for 24 hours, treated for 1 hour before collection
Protocol: (§1) The skin “photo-aging” caused by ultraviolet rays may lead to an increase of matrix metalloproteinase in the dermis via the phosphorylation of the mitogen-activated protein kinase (MAPK), and thus a western blotting assay was also carried out in this experiment to observe the effect of tormentic acid on the phosphorylation of mitogen-activated protein kinase in cells; the result is shown in FIG. 5.
(§2) However, when the cells were treated with tormentic acid for 1 hour before collection, the phosphorylation of JNK, ERK, and p38 can be inhibited.

[1] = system: matrix metalloproteinase (collagenase, Sigma); test: Fluorogenic substrate test (collagenase substrate III); format: biochemical
Source text: (§3) In addition to collagen decomposing, matrix metalloproteinase (collagenase) has the effect of gelatin decomposing. The property of the fluorescence generation of decomposed gelatin and decomposed commercial substrates of collagenase (purchased from Calbiochem, la Jolla, […]) was used in this example to evaluate the inhibitory effect of tormentic acid on the matrix metalloproteinase.
A specific amount of a solution of the collagenase substrate III (Mcc-Pro-Leu-Gly-Pro-D-Lys (DNP)—OH, purchased from Calbiochem, la Jolla, […]), a matrix metalloproteinase (collagenase, Sigma) solution, tormentic acid or doxycycline as the positive control were mixed and added to a 96 well plate. Then, an ELISA reader was used to determine the […] (405 nm), respectively. The results are shown in Table 2 and FIG. 3, wherein ΔF is the fluorescence value that the basic fluorescence value at time zero has been deducted.

[2] = system: matrix metalloproteinase-1; test: Western blotting of matrix metalloproteinase-1 in UV-exposed fibroblasts; format: cell-based, human; conditions: WS1 fibroblasts exposed to UV for 24 hours, treated for 1 hour before collection
c-Jun = test: Western blotting of AP-1 subunit c-Jun in the nucleus; format: cell-based, human; conditions: WS1 fibroblasts exposed to UV for 24 hours, treated for 1 hour before collection
Source text: (§4) The UV exposure of cells induces JNK and p38 to activate c-Jun, which then enters into the nucleus. Then, c-Fos translocates into the nucleus under the regulation of ERK and p38. A c-Jun subunit combines with a c-Fos subunit to form an activator protein 1 (AP-1) gene transcription factor, which then participates in gene expression to promote the transcription of message RNA (mRNA) of matrix metalloproteinase-1 (MMP-1) and reduces the gene expression of procollagen-Iα1 (procollagen α1 of Type I collagen). Thus, a western blotting assay was carried out in this experiment to further observe the protein expression of AP-1 in the nucleus, and the result is shown in FIG. 6. After the WS1 human skin dermal fibroblasts were exposed to UV rays for 24 hours, the expression level of c-Jun and c-Fos in the nucleus were increased. However, when the cells were treated with tormentic acid for 1 hour before collection, the expression of c-Jun and c-Fos were inhibited.

[3] = system: WS1 human skin dermal fibroblasts; test: Test of cell survival rate (MTS assay) under UV exposure; format: cell-based; conditions: for absorption value (MTS, 490 nm) / survival rate (%): UV 90 mJ/cm^2, 24 hours; for death of the cells (in words): 90 mJ/cm^2 UV
Protocol: The following experiment was carried out by using WS1 human skin dermal fibroblasts (purchased from Food Industry Research and Development Institute, Taiwan). Under exposure to the ultraviolet ray (UV) with the intensity range from 0 mJ/cm^2 to 120 mJ/cm^2, it will not cause death to WS1 human skin dermal fibroblasts. Thus, this experiment was carried out at the UV intensity of 90 mJ/cm^2. First, tormentic acid of various concentrations (0, 0.1, 1.0, 2.0, or 10 μg/ml) was added to a culture medium (comprising α-minimum essential medium, 10% heat-inactivated Fetal Bovine Serum, 100 U/ml penicillin, and 100 μg/ml Streptomycin) containing the WS1 human skin dermal fibroblasts. After the cells were cultured for 24 hours, an MTS (3-(4,5-di-methylthiazol-2-yl)-5-(3-carboxymethoxy phenyl)-2-(4-sulfophenyl)-2H-tetrazolium, commercially available from Promega, Madison, Wis., America) assay was carried out to observe the cell survival rate, and the results are shown in Table 3. The mechanism of the MTS assay is as follows: the dehydrogenase activity of living cells can reduce MTS to a water soluble product that is red purple in color, which has a maximum absorption at a wavelength of 490 nm, and thus, the cell survival rate can be evaluated by absorption values.

[4] = system: bacterial matrix metalloproteinase; test: Decomposition test of gelatin (inhibition of matrix metalloproteinase activity); format: biochemical
Protocol: as §3
A 50 μl buffer solution (pH 7.8, contained 50 mM Tris-HCl, 10 mM calcium chloride, and 0.15 M sodium chloride), 30 μl sterile water, and 10 μl bacterial matrix metalloproteinase (0.1 mg/ml, Sigma) were added into an eppendorf tube, and then a 10 μl solution of tormentic acid ([…]) or doxycycline as the positive control was added into the eppendorf tube. The mixture was well mixed, and incubated at room temperature for 60 minutes.
The mixture (30 μl) was drawn and dropped on a circular filter paper covering a gelatin culture medium, and then the filter paper along with the medium was placed into an incubator under 37° C. After incubating for 18 hours, the filter paper was removed. The culture medium was stained with a Coomassie Blue R-250 staining solution (purchased from Amresco company, America), and then was destained with a destaining solution. Because gelatin decomposed by matrix metalloproteinase will not be stained by the Coomassie Blue staining solution, the transparency of the culture medium may reveal the activity of the matrix metalloproteinase. After the culture medium was photographed, the picture was analyzed by an image analysis software (AlphaDigiDoc 1201, purchased from Alpha Innotech Co., America) to calculate the inhibition rate of tormentic acid on the activity of gelatin decomposition of the matrix metalloproteinase.

[5] = system: c-Jun N-terminal Kinase (JNK); test: Western blotting of phosphorylated JNK in UV-exposed fibroblasts; format: cell-based, human; conditions: WS1 fibroblasts exposed to UV for 24 hours, treated for 1 hour before collection
Protocol: as §1, §2

[6] = system: extracellular signal-regulated protein kinase (ERK); test: Western blotting of phosphorylated ERK in UV-exposed fibroblasts; format: cell-based, human; conditions: WS1 fibroblasts exposed to UV for 24 hours, treated for 1 hour before collection
Protocol: as §1, §2

c-Fos = test: Western blotting of AP-1 subunit c-Fos in the nucleus; format: cell-based, human; conditions: WS1 fibroblasts exposed to UV for 24 hours, treated for 1 hour before collection
Source text: as §4

procollagen-1 = test: Western blotting of procollagen-1 in UV-exposed fibroblasts; format: cell-based, human; conditions: WS1 fibroblasts exposed to UV for 24 hours, treated for 1 hour before collection

For `C[C@@H]1CC[C@]2(C(=O)O)CC[C@]3(C)C(=CC[C@@H]4[C@@]5(C)C[C@@H](O)[C@H](O)C(C)(C)[C@@H]5CC[C@]43C)[C@@H]2[C@]1(C)O` [tormentic acid], the “phosphorylation of p38” value (p38 protein) was “inhibited”, the “generation of fluorescence from collagenase substrate III (in words)” value [1] was “can reduce the generation of fluorescence” and the “Inhibition rate (collagenase substrate III decomposition)” value ([1]; 50 μg/ml) was “(39%)”. For the same compound, the “ΔF (fluorescence value, time-zero value deducted)” value ([1]; 50 μg/ml) was 54.8 ± 8.4, the “Inhibition rate (collagenase substrate III decomposition)” value ([1]; 100 μg/ml) was “(44.7%)” and the “ΔF (fluorescence value, time-zero value deducted)” value ([1]; 100 μg/ml) was 49.8 ± 7.2. For the same compound, the “Inhibition rate (collagenase substrate III decomposition)” value ([1]; 250 μg/ml) was “(79.1%)”, the “ΔF (fluorescence value, time-zero value deducted)” value ([1]; 250 μg/ml) was 18.8 ± 10.8 and the “expression of matrix metalloproteinase-1” value [2] was “inhibited”. For the same compound, the “expression of c-Jun in the nucleus” value (c-Jun) was “inhibited”, the “absorption value (MTS, 490 nm)” value ([3]; 0.1 μg/ml) was 1.08 ± 0.95 and the “survival rate (%)” value ([3]; 0.1 μg/ml) was 103.8%. For the same compound, the “absorption value (MTS, 490 nm)” value ([3]; 1.0 μg/ml) was 1.10 ± 0.97, the “survival rate (%)” value ([3]; 1.0 μg/ml) was 105.8% and the “absorption value (MTS, 490 nm)” value ([3]; 2.0 μg/ml) was 1.10 ± 0.98. The “survival rate (%)” value ([3]; 2.0 μg/ml) was 105.8%, the “absorption value (MTS, 490 nm)” value ([3]; 10.0 μg/ml) was 0.83 ± 0.70 and the “survival rate (%)” value ([3]; 10.0 μg/ml) was 79.8%. The “death of the cells (in words)” value ([3]; concentration of 10 μg/ml) was “caused the death of the cells”, the “death of the cells (in words)” value ([3]; concentration of lower than 2 μg/ml) was “did not cause the death of the cells” and the “cytotoxicity (in words)” value ([3]; low concentration) was “no cytotoxicity”. The “Inhibition rate (%) of gelatin decomposing activity” value (from here on “Inhibition rate (%)”) ([4]; 25 μg/ml) was 3.7%, the “Inhibition rate (%)” value ([4]; 50 μg/ml) was 24.0% and the “Inhibition rate (%)” value ([4]; 100 μg/ml) was 62.7%. The “Inhibition rate (%)” value ([4]; 200 μg/ml) was 75.3%, the “activity of gelatin decomposition of the matrix metalloproteinase (in words)” value ([4]; 25-200 μg/ml) was “significantly inhibited” and the “phosphorylation of JNK” value [5] was “inhibited”. For the same compound, the “phosphorylation of ERK” value [6] was “inhibited”, the “expression of c-Fos in the nucleus” value (c-Fos) was “inhibited” and the “expression of procollagen-1” value (procollagen-1) was “increased”.

From patent US8853271B2, “Method for inhibiting activity and/or expression of matrix metalloproteinase, inhibiting phosphorylation of mitogen-activated protein kinase, and/or promoting expression of collagen using tormentic acid” (China Medical University, priority 2010, dated 2014)
